Calls of active or inactive are those of the source. The rule behind the calls is not given here.
Key:
Mus musculus [1] = experiment: Effect on mortality of BALB/c mouse inoculated with Cowpox virus at 15 mg/kg after 48 hrs of viral infection, ip once daily for 5 days relative to control; format: functional; conditions: route intraperitoneal
Mus musculus [2] = experiment: Effect on mortality of BALB/c mouse inoculated with Cowpox virus BR at 15 mg/kg after 24 hrs of viral infection, ip for 5 days relative to control; format: functional; conditions: route intraperitoneal
Mus musculus [3] = experiment: Effect on mortality of A/NCr mouse inoculated with ectromelia virus at 100 mg/kg after 0 hrs of viral infection, ip once daily for 10 days relative control; format: functional; conditions: route intraperitoneal
Mus musculus [4] = experiment: Effect on mortality of A/NCr mouse inoculated with 4100 PFU ectromelia virus at 100 mg/kg after 4 hrs of viral infection, ip once daily for 14 days; format: functional; conditions: route intraperitoneal
Mus musculus [5] = experiment: Effect on mortality of A/NCr mouse inoculated with ectromelia virus at 100 mg/kg after 72 hrs of viral infection, ip once daily for 10 days relative control; format: functional; conditions: route intraperitoneal
Vaccinia virus [6] = experiment: Reduction of Vaccinia virus WR replication in BALB/c mouse liver at 15 mg/kg after 24 hrs of viral infection, ip for 5 days; format: functional, organism-based; design: dose 15 mg/kg; conditions: Orthopoxvirus vaccinia
Cowpox virus [7] = experiment: Reduction of Cowpox virus BR replication in BALB/c mouse spleen at 15 mg/kg after 24 hrs of viral infection, ip for 5 days; format: functional, organism-based; design: dose 15 mg/kg
Cowpox virus [8] = experiment: Reduction of Cowpox virus BR replication in BALB/c mouse liver at 15 mg/kg after 24 hrs of viral infection, ip for 5 days; format: functional, organism-based; design: dose 15 mg/kg
Mus musculus [9] = experiment: Effect on mortality of BALB/c mouse inoculated with Cowpox virus BR at 50 mg/kg after 24 hrs of viral infection, po for 9 days; format: functional, organism-based; design: dose 50 mg/kg
Vaccinia virus [10] = experiment: Reduction of Vaccinia virus WR replication in BALB/c mouse spleen at 15 mg/kg after 24 hrs of viral infection, ip for 5 days; format: functional, organism-based; design: dose 15 mg/kg; conditions: Orthopoxvirus vaccinia
Mus musculus [11] = experiment: Effect on mortality of A/NCr mouse inoculated with 410 PFU ectromelia virus at 100 mg/kg after 4 hrs of viral infection, ip once daily for 14 days; format: functional; conditions: route intraperitoneal
Vaccinia virus [12] = experiment: Reduction of Vaccinia virus WR replication in BALB/c mouse kidney at 15 mg/kg after 24 hrs of viral infection, ip for 5 days; format: functional, organism-based; design: dose 15 mg/kg; conditions: Orthopoxvirus vaccinia
[13] = Cytotoxicity against HFF cells; format: cell-based; conditions: human
Mus musculus [14] = experiment: Effect on mortality of A/NCr mouse inoculated with 4.1 PFU ectromelia virus at 100 mg/kg after 4 hrs of viral infection, ip once daily for 14 days; format: functional; conditions: route intraperitoneal
[15] = Selectivity index, ratio of CC50 for HFF cells to EC50 for Vaccinia virus WR infected HFF cells; format: functional
Mus musculus [16] = experiment: Effect on mortality of A/NCr mouse inoculated with 41 PFU ectromelia virus at 100 mg/kg after 4 hrs of viral infection, ip once daily for 14 days; format: functional; conditions: route intraperitoneal
Cowpox virus [17] = experiment: Reduction of Cowpox virus BR replication in BALB/c mouse kidney at 15 mg/kg after 24 hrs of viral infection, ip for 5 days; format: functional, organism-based; design: dose 15 mg/kg
Mus musculus [18] = experiment: Effect on mortality of BALB/c mouse inoculated with Cowpox virus at 15 mg/kg after 24 hrs of viral infection, ip once daily for 5 days relative to control; format: functional; conditions: route intraperitoneal
Mus musculus [19] = experiment: Effect on mortality of BALB/c mouse inoculated with Cowpox virus at 15 mg/kg after 4 hrs of viral infection, ip once daily for 5 days relative to control; format: functional; conditions: route intraperitoneal
Mus musculus [20] = experiment: Effect on mortality of BALB/c mouse inoculated with Cowpox virus at 15 mg/kg after 72 hrs of viral infection, ip once daily for 5 days relative to control; format: functional; conditions: route intraperitoneal
[21] = Selectivity index, ratio of CC50 for HFF cells to EC50 for Vaccinia virus Copenhagen infected HFF cells; format: functional
Mus musculus [22] = experiment: Effect on mortality of A/NCr mouse inoculated with ectromelia virus at 100 mg/kg after 24 hrs of viral infection, ip once daily for 10 days relative control; format: functional; conditions: route intraperitoneal
Mus musculus [23] = experiment: Effect on mortality of BALB/c mouse inoculated with Vaccinia virus WR at 15 mg/kg after 24 hrs of viral infection, ip for 5 days relative to control; format: functional; conditions: route intraperitoneal
[24] = Selectivity index, ratio of CC50 for HFF cells to EC50 for Cowpox virus Brighton infected HFF cells; format: functional
Mus musculus [25] = experiment: Effect on mortality of A/NCr mouse inoculated with ectromelia virus at 100 mg/kg after 48 hrs of viral infection, ip once daily for 10 days relative control; format: functional; conditions: route intraperitoneal

Compound `Nc1ccn(C[C@@H](CO)OCP(=O)(O)O)c(=O)n1.O.O` [CIDOFOVIR] has an Activity (Mus musculus [1]) of 0%, an Activity (Mus musculus [2]) of 0% and an Activity (Mus musculus [3]) of 0%. For the same compound, the Activity (Mus musculus [4]) was 0%, the Activity (Mus musculus [5]) was 0% and the Activity (Vaccinia virus [6]) was “Active”. The Activity (Cowpox virus [7]) was “Active”, the Activity (Cowpox virus [8]) was “Active” and the Activity (Mus musculus [9]) was “Active”. For the same compound, the Activity (Vaccinia virus [10]) was “Active”, the Activity (Mus musculus [11]) was 0% and the Activity (Vaccinia virus [12]) was “Active”. For the same compound, the CC50 [13] was > 317 µM, the Activity (Mus musculus [14]) was 0% and the “Ratio CC50/EC50” value [15] was >9.6. The Activity (Mus musculus [16]) was 40%, the Activity (Cowpox virus [17]) was “Active” and the Activity (Mus musculus [18]) was 0%. The Activity (Mus musculus [19]) was 0%, the Activity (Mus musculus [20]) was 0% and the “Ratio CC50/EC50” value [21] was >10.9. The Activity (Mus musculus [22]) was 0%, the Activity (Mus musculus [23]) was 7% and the “Ratio CC50/EC50” value [24] was >7.7. It also gave an Activity (Mus musculus [25]) of 0%.
